From ChEMBL document CHEMBL3734673, “Potent chemical chaperone compounds for GM1-gangliosidosis: N-substituted (+)-conduramine F-4 derivatives” (Medchemcomm, 2015) come the findings set out here.

Data set [1] in a line: Inhibition of human alpha-galactosidase isolated from human fibroblasts incubated for 30 mins using […] analysis.
The target of a further data set is T1, Beta-galactosidase (Homo sapiens, UniProt P16278).
T1 sequence (P16278 whole entry): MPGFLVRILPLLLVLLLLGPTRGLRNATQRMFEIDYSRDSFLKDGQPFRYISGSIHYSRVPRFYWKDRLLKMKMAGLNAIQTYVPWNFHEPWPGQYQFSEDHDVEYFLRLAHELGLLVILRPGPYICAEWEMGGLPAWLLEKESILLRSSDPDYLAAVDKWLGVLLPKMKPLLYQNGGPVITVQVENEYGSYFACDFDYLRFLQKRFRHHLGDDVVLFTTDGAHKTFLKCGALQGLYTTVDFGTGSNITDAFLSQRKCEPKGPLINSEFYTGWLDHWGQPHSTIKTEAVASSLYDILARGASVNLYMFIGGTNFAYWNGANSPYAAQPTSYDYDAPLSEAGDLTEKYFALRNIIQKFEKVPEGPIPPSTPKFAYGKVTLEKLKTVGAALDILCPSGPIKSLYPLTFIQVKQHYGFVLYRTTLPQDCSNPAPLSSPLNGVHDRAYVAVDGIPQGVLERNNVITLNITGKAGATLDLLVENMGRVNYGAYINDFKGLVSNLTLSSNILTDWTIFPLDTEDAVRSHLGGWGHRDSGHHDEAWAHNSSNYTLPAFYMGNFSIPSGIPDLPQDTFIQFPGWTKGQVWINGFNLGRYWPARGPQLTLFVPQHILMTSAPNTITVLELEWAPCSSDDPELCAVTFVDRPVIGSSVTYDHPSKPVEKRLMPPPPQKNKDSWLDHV
Nature of the data set: Inhibition of human beta-galactosidase expressed in mouse fibroblasts using 4-methylumbelliferone -conugated beta-D-galactoside as substrate incubated for 30 mins at pH 4.5 followed by substrate addition by fluorescence analysis.

Data set [2] concerns T2, Beta-galactosidase (Homo sapiens), P16278 [R201C].
T2 sequence (whole entry): T1 sequence (P16278 whole entry) with R201C
As to the kind of experiment: Activation of human beta-galactosidase R201C mutant expressed in mouse fibroblasts using 4-methylumbelliferone -conugated beta-D-galactoside as substrate at 0.2 uM preincubated for 48 hrs followed by substrate addition measured after 30 mins by fluorescence analysis relative to control.

For data set [3] the test system is unchanged. Nature of the data set: Activation of human beta-galactosidase R201C mutant expressed in mouse fibroblasts using 4-methylumbelliferone -conugated beta-D-galactoside as substrate at 20 uM preincubated for 48 hrs followed by substrate addition measured after 30 mins by fluorescence analysis relative to control.
The test system is the same in data set [4]. As to the kind of experiment: Activation of human beta-galactosidase R201C mutant expressed in mouse fibroblasts using 4-methylumbelliferone -conugated beta-D-galactoside as substrate at 2 uM preincubated for 48 hrs followed by substrate addition measured after 30 mins by fluorescence analysis relative to control.
The target in data set [5] is T3, Lysosomal acid glucosylceramidase (Homo sapiens, UniProt P04062).
T3 sequence (P04062 whole entry): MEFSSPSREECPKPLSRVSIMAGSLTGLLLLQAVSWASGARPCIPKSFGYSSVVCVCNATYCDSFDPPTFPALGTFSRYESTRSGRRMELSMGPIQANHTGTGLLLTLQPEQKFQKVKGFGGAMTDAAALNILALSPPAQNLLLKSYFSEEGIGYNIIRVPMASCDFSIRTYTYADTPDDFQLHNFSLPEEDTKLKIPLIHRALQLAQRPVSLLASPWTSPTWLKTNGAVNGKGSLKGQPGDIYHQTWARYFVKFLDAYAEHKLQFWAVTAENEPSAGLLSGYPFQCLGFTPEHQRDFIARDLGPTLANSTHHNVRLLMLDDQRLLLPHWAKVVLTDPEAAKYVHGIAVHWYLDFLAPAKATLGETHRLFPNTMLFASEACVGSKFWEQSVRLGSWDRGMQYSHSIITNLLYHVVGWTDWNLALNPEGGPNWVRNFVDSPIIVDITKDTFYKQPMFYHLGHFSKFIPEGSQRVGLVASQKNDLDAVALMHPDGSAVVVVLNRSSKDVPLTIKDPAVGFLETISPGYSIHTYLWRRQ
Nature of the data set: Inhibition of human beta-glucosidase isolated from human fibroblasts incubated for 30 mins using […] analysis.

In data set [6] the target is T4, Beta-galactosidase (Bos taurus) (UniProt Q58D55).
T4 sequence (whole entry): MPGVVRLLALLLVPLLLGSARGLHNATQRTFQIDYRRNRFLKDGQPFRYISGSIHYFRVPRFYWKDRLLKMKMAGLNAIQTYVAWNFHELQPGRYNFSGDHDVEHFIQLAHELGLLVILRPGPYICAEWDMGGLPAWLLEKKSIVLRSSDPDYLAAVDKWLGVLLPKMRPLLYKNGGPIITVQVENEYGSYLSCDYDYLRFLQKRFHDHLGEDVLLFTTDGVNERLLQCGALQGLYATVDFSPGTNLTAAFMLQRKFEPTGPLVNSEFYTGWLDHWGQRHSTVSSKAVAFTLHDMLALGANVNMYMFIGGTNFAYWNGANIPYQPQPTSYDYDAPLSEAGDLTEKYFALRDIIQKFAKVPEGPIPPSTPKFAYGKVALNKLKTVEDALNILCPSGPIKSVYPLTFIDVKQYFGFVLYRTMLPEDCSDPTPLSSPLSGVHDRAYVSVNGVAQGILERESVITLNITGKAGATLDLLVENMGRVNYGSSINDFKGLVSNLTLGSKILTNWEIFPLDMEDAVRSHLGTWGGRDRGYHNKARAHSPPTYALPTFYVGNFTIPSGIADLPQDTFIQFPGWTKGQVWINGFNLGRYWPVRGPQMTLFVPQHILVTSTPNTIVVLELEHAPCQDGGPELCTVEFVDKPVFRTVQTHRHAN
As to the kind of experiment: Inhibition of bovine liver beta-galactosidase using p-nitrophenyl-beta-D-galactopyranoside as substrate preincubated with substrate followed by protein addition measured after 30 mins by microplate reader analysis.

Data set [7] can be described thus: Cytotoxicity against human fibroblasts at 200 uM by LDH assay. The format is cell-based. As to conditions: fibroblast.
The test system of the next data set is Prunus dulcis. As to the kind of experiment: Inhibition of almond beta-glucosidase using p-nitrophenyl-beta-D-glucopyranoside as substrate preincubated with substrate followed by protein addition measured after 30 mins by microplate reader analysis.

SMILES strings stand for the structures. Positions count from the first letter of the chain named. Calls of active or inactive are those of the source. No cut-off for these calls is given here.

Consider `CCCCCCCCN[C@@H]1C=C(C)[C@H](O)[C@H](O)[C@H]1O`, for which the figures for the IC50 (in data set [1]; against Beta-galactosidase; in data set [5]) were more than 1000 µM, 46 µM and more than 1000 µM, respectively. Besides, the outcome in [2] and in data set [4] was Active. In data set [3], this compound returned a fold change (FC) of 5.2.

Regarding `CCCCCCCCN[C@@H]1C=C[C@H](O)[C@H](O)[C@H]1O.Cl`, the half-inhibitory concentration (IC50) in data set [1] was more than 1000 µM; against Beta-galactosidase, 120 µM; in data set [5], more than 1000 µM. The inhibition result (in data set [6]; with Prunus dulcis) was “Active” throughout. This compound also registered an Activity in data set [7] of 25%. For the same compound, the outcome in data set [2] and in data set [4] was Active. In addition, in data set [3], the fold change (FC) amounted to 5.4.
